“Also recorded” adds a separate entry of the source. Read-outs that look alike come from different tables or passages of the source.
Assays:
[1] = target: human cannabinoid CB1 receptor (Homo sapiens, UniProt P21554); assay: In vitro affinity for cannabinoid-CB1 receptors, displacement of [3H]CP-55,940; assay type: binding
Experimental: In vitro affinity for cannabinoid-CB1 receptors was determined using membrane preparations of Chinese hamster ovary (CHO) cells wherein the human cannabinoid CB1 receptor was stably transfected in conjunction with [^3H]CP-55,940 as radioligand. After incubation of a freshly prepared cell membrane preparation with the [^3H]-ligand, with or without addition of compounds of the invention, separation of bound and free ligand was performed by filtration over glassfiber filters. Radioactivity on the filter was measured by liquid scintillation counting. The binding data were either obtained by CEREP (128, rue Danton, 92500 Rueil-Malmaison, France) or at Solvay Pharmaceuticals B.V. (C. J. van Houtenlaan 36, 1381 C P Weesp, The Netherlands).

human CB1 receptors = human CB1 receptors (Homo sapiens, UniProt P21554); assay: In vitro CB1 receptor antagonism, inhibition of WIN 55,212-2-induced [3H]-arachidonic acid release in CHO cells; assay type: cell-based; settings: for Kb: read-out: functional activity inhibition AA release [3H]-Arachidonic acid pA2 (converted)
Experimental: In vitro cannabinoid-[…] receptor antagonism was assessed with human CB1 receptors cloned in Chinese hamster ovary (CHO) cells. CHO cells were grown in a Dulbecco's Modified Eagle's medium (DMEM) culture medium, supplemented with 10% heat-inactivated fetal calf serum. Medium was aspirated and replaced by DMEM, without fetal calf serum, but containing [^3H]-arachidonic acid and incubated overnight in a cell culture stove (5% CO2/95% air; 37° C.; water-saturated atmosphere). During this period [^3H]-arachidonic acid was incorporated in membrane phospholipids. On the test day, medium was aspirated and cells were washed three times using 0.5 mL DMEM, containing 0.2% bovine serum albumin (BSA). Stimulation of the CB1 receptor by WIN 55,212-2 lead to activation of PLA2 followed by release of [^3H]-arachidonic acid into the medium. This WIN 55,212-2-induced release was concentration-dependently antagonized by CB1 receptor antagonists.

cannabinoid-CB1 receptor = target: T1, cannabinoid-CB1 receptor (Rattus norvegicus, UniProt P20272); assay: In vivo CB1 receptor antagonism, CP-55,940-induced hypotension test; settings: for activity in the in vivo CB1 mediated (CP-55,940-induced) hypotension test, in words: oral administration; for ED50: po, CP-55,940 (0.1 mg/kg i.v.) induced hypotension, read-out: CB-agonist induced blood pressure rat ID50
T1 construct: Male normotensive rats (225-300 g; Harlan, Horst, The Netherlands) were anaesthetized; from tissue; host or cells: whole animal: male normotensive rats (Harlan)
Experimental: In vivo cannabinoid-CB1 receptor antagonism was assessed with the CP-55,940-induced hypotension test in rat. Male normotensive rats (225-300 g; Harlan, Horst, The Netherlands) were anaesthetized with pentobarbital (80 mg/kg ip). Blood pressure was measured, via a cannula inserted into the left carotid artery, by means of a Spectramed DTX-plus pressure transducer (Spectramed B. V., Bilthoven, The Netherlands). After amplification by a Nihon Kohden Carrier Amplifier (Type AP-621G; Nihon Kohden B. V., Amsterdam, The Netherlands), the blood pressure signal was registered on a personal computer (Compaq Deskpro 386s), by means of a Po-Ne-Mah data-acquisition program (Po-Ne-Mah Inc., Storrs, USA). Heart rate was derived from the pulsatile pressure signal. All compounds were administered orally as a microsuspension in 1% methylcellulose, 30 minutes before induction of the anesthesia, 60 minutes prior to administration of the CB1 receptor agonist CP-55,940. The injection volume was 10 ml/kg. After haemodynamic stabilization the CB1 receptor agonist CP-55,940 (0.1 mg/kg i. v.) was administered and the hypotensive effect established (Wagner, 2001).

[2] = h-CB1 receptor, CHO cell membranes, read-out: receptor binding displacement [3H]-CP-55,940 pKi (converted)
[3] = (5R) versus (5S)-enantiomer (compound 2)
[4] = h-CB1 receptor in CHO cells, WIN 55,212-2-induced release

T1 sequence (P20272 whole entry): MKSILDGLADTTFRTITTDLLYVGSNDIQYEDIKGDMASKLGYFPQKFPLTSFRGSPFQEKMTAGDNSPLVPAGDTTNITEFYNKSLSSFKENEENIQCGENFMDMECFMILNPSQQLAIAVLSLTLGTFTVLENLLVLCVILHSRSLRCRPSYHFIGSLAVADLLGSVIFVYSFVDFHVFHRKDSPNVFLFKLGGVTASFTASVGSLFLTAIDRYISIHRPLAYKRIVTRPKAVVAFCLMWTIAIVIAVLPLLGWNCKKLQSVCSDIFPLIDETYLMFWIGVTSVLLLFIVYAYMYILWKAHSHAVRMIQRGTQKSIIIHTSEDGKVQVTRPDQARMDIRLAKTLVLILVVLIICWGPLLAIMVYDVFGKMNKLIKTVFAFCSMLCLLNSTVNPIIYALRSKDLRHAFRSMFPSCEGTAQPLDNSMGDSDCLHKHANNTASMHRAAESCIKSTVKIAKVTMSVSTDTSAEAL
human cannabinoid CB1 receptor, sequence (P21554 whole entry): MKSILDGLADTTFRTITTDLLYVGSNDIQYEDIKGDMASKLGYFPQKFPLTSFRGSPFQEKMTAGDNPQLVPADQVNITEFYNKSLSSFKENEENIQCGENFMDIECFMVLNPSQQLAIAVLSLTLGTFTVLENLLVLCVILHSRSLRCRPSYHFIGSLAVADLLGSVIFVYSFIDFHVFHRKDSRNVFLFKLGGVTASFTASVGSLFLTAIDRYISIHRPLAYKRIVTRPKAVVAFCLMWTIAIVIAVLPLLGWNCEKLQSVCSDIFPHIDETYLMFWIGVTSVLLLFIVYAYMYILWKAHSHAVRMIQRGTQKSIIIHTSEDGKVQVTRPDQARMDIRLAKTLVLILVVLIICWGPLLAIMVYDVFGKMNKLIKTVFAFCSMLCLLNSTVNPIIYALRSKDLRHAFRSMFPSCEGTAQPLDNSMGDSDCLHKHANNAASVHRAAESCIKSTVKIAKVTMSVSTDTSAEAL
human CB1 receptors, sequence (P21554 whole entry): as above

| SMILES | Ki [1, 2] [nM] | activity in the in vivo CB1 mediated (CP-55,940-induced) hypotension test, in words (cannabinoid-CB1 receptor) | ED50 (cannabinoid-CB1 receptor) [mg/kg] | further results |
| --- | --- | --- | --- | --- |
| CN/C(=N\S(=O)(=O)N1CCC(F)CC1)C1=NN(c2ccc(Cl)cc2)[C@@H](c2ccccc2)C1 [Compound 3, 5R-(+)-N-[(4-fluoropiperidin-1-yl)sulfonyl]-N′-methyl-1-(4-chlorophenyl)-5-phenyl-4,5-dihydro-(1H)-pyrazole-3-carboxamidine] | 15.8 |  |  |  |
| CN=C(NS(=O)(=O)N1CCC(F)(F)CC1)C1=NN(c2ccc(Cl)cc2)C(c2ccccc2F)C1 (racemic) [racemate 2, N-[(4,4-difluoropiperidin-1-yl)sulfonyl]-N′-methyl-1-(4-chlorophenyl)-5-(2-fluorophenyl)-4,5-dihydro-(1H)-pyrazole-3-carboxamidine] |  |  |  | melting point: 166 to 167 °C |
| CN/C(=N\S(=O)(=O)N1CCC(F)(F)CC1)C1=NN(c2ccc(Cl)cc2)[C@@H](c2ccccc2)C1 (single isomer, unassigned) [Compound 1] | 10 | active; also recorded: potent activities | 6 | affinity for human CB1 receptors relative to the (5S)-enantiomer [1, 3]: 25 fold; antagonist potency (pA2) relative to the (5S)-enantiomer (human CB1 receptors; [3]): 40 times; Kb (human CB1 receptors; [4]): 1.58 nM |
| CN/C(=N\S(=O)(=O)N1CCC(C(F)(F)F)CC1)C1=NN(c2ccc(Cl)cc2)[C@@H](c2ccccc2)C1 [Compound 4, 5R-(+)-N-[(4-(trifluoromethyl)piperidin-1-yl)sulfonyl]-N′-methyl-1-(4-chlorophenyl)-5-phenyl-4,5-dihydro-(1H)-pyrazole-3-carboxamidine] |  |  |  | Ki [1]: 3.16 nM; functional activity inhibition AA release [3H]-Arachidonic acid pA2 (human CB1 receptors; [4]): 9.5 |
| CN/C(=N\S(=O)(=O)N1CCCCC1)C1=NN(c2ccc(Cl)cc2)C(c2ccccc2)C1 (racemic) [N-[(piperidin-1-yl)-sulfonyl]-N′-methyl-1-(4-chlorophenyl)-5-phenyl-4,5-dihydro-(1H)-pyrazole-3-carboxamidine, reference compound] |  |  | > 30 |  |
| CN=C(NS(=O)(=O)N1CCC(F)(F)CC1)C1=NN(c2ccc(Cl)cc2)C(c2ccccc2)C1 (racemic) [racemate (1 + 2), N-[(4,4-difluoropiperidin-1-yl)sulfonyl]-N′-methyl-1-(4-chlorophenyl)-5-phenyl-4,5-dihydro-(1H)-pyrazole-3-carboxamidine] | 25.1 | potent activities | 9 |  |
| CN/C(=N\S(=O)(=O)N1CCCCC1)C1=NN(c2ccc(Cl)cc2)C(c2ccccc2)C1 (stereo not shown) [EP 1 713 475 Compound 10, reference compound] |  |  | > 30 |  |
| CN/C(=N\S(=O)(=O)N1CCC(F)(F)CC1)C1=NN(c2ccc(Cl)cc2)[C@H](c2ccccc2)C1 (single isomer, unassigned) [Compound 2] | 251 | inactive | > 30 | Kb (human CB1 receptors; [4]): 79.4 nM |
